Source: patent US10245261B2, “Substituted indol-5-ol derivatives and their therapeutic applications” (NantBioScience, Inc., priority 2013, dated 2019)

What was measured:
Assay in all cases: KinaseProfiler kinase assay
Format in all cases: biochemical
AMPKα1(h) = AMPKα1(h) (Homo sapiens, UniProt Q13131)
How it was run: (§1)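 Steps: compound diluted from DMSO into MOPS/BSA assay buffer; MgATP mix with [γ-33P]ATP added to start; 40 min incubation at room temperature; phosphoric acid stop; filtermat spotting, washing in 50 mM phosphoric acid and methanol; scintillation counting.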

Aurora-C(h) = Aurora-C(h) (Homo sapiens, UniProt Q9UQB9)
How it was run: as §1

Blk(m) = Blk(m) (Mus musculus, UniProt P16277)
How it was run: as §1

CHK1(h) = CHK1(h) (Homo sapiens, UniProt O14757)
How it was run: as §1

DMPK(h) = DMPK(h) (Homo sapiens, UniProt Q09013)
How it was run: as §1

EphA7(h) = EphA7(h) (Homo sapiens, UniProt Q15375)
How it was run: as §1

FGFR2(N549H)(h) = FGFR2(N549H)(h) (Homo sapiens, UniProt P21802, N549H)
How it was run: as §1

GRK5(h) = GRK5(h) (Homo sapiens, UniProt P34947)
How it was run: as §1

GRK7(h) = GRK7(h) (Homo sapiens, UniProt Q8WTQ7)
How it was run: as §1

HIPK1(h) = HIPK1(h) (Homo sapiens, UniProt Q86Z02)
How it was run: as §1

HIPK3(h) = HIPK3(h) (Homo sapiens, UniProt Q9H422)
How it was run: as §1

IGF-1R(h), activated = IGF-1R(h), activated (Homo sapiens, UniProt P08069)
How it was run: as §1

IRAK4(h) = IRAK4(h) (Homo sapiens, UniProt Q9NWZ3)
How it was run: as §1

JAK3(h) = JAK3(h) (Homo sapiens, UniProt P52333)
How it was run: as §1

Lyn(h) = Lyn(h) (Homo sapiens, UniProt P07948)
How it was run: as §1

MAPK1(h) = MAPK1(h) (Homo sapiens, UniProt P27361)
How it was run: as §1

MSSK1(h) = MSSK1(h) (Homo sapiens, UniProt Q9UPE1)
How it was run: as §1

MuSK(h) = MuSK(h) (Homo sapiens, UniProt O15146)
How it was run: as §1

PDGFRβ(h) = PDGFRβ(h) (Homo sapiens, UniProt P09619)
How it was run: as §1

PEK(h) = PEK(h) (Homo sapiens, UniProt Q9NZJ5)
How it was run: as §1

[1] = target: PI3 Kinase (p110α/p85α)(h) (Homo sapiens, UniProt P42336)
How it was run: as §1

[2] = target: PI3 Kinase (p110β/p85α)(m) (Mus musculus, UniProt Q8BTI9)
How it was run: as §1

PKCη(h) = PKCη(h) (Homo sapiens, UniProt P24723)
How it was run: as §1

Pim-1(h) = Pim-1(h) (Homo sapiens, UniProt P11309)
How it was run: as §1

Pim-3(h) = Pim-3(h) (Homo sapiens, UniProt Q86V86)
How it was run: as §1

Plk3(h) = Plk3(h) (Homo sapiens, UniProt Q9H4B4)
How it was run: as §1

RIPK2(h) = RIPK2(h) (Homo sapiens, UniProt O43353)
How it was run: as §1

ROCK-II(h) = ROCK-II(h) (Homo sapiens, UniProt O75116)
How it was run: as §1

Ros(h) = Ros(h) (Homo sapiens, UniProt P08922)
How it was run: as §1

TBK1(h) = TBK1(h) (Homo sapiens, UniProt Q9UHD2)
How it was run: as §1

ZIPK(h) = ZIPK(h) (Homo sapiens, UniProt O43293)
How it was run: as §1

c-RAF(h) = c-RAF(h) (Homo sapiens, UniProt P04049, Y340D/Y341D)
How it was run: as §1

Sequence of FGFR2(N549H)(h) (P21802 22-821 N549H): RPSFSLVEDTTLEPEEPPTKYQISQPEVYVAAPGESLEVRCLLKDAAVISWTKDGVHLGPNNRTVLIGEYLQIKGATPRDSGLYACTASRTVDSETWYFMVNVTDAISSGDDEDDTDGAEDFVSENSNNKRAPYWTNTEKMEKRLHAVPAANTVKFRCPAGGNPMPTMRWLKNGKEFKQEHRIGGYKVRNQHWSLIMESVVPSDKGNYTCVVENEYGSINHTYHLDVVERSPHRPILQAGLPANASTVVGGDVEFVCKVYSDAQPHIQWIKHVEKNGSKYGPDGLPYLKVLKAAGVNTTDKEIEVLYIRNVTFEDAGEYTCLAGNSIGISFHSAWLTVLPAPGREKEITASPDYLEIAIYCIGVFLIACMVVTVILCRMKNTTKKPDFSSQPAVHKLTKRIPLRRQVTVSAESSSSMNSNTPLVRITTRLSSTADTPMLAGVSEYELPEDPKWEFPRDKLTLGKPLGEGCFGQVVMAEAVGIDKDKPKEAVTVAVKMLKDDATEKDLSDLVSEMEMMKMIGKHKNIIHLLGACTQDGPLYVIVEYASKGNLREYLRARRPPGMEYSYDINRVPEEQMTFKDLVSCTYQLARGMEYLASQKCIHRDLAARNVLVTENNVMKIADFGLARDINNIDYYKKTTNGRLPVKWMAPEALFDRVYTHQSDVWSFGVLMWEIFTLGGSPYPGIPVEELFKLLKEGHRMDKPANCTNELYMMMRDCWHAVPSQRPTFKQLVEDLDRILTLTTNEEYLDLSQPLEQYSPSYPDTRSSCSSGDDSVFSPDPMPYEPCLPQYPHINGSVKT
Sequence of RIPK2(h) (O43353 whole entry): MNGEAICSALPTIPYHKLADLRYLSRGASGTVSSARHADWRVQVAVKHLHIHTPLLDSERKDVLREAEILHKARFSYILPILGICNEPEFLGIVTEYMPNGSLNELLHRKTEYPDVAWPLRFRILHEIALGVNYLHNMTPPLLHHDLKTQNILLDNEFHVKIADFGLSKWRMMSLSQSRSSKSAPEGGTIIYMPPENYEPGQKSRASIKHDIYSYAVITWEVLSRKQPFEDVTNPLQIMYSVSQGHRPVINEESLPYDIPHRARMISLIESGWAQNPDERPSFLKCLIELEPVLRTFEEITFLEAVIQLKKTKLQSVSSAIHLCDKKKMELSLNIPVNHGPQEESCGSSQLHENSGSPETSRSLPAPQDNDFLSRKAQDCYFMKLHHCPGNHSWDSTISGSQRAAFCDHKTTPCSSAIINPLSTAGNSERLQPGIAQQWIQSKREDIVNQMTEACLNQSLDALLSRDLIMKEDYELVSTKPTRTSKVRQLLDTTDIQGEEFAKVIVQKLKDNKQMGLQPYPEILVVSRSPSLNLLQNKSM
Sequence of ROCK-II(h) (O75116 whole entry): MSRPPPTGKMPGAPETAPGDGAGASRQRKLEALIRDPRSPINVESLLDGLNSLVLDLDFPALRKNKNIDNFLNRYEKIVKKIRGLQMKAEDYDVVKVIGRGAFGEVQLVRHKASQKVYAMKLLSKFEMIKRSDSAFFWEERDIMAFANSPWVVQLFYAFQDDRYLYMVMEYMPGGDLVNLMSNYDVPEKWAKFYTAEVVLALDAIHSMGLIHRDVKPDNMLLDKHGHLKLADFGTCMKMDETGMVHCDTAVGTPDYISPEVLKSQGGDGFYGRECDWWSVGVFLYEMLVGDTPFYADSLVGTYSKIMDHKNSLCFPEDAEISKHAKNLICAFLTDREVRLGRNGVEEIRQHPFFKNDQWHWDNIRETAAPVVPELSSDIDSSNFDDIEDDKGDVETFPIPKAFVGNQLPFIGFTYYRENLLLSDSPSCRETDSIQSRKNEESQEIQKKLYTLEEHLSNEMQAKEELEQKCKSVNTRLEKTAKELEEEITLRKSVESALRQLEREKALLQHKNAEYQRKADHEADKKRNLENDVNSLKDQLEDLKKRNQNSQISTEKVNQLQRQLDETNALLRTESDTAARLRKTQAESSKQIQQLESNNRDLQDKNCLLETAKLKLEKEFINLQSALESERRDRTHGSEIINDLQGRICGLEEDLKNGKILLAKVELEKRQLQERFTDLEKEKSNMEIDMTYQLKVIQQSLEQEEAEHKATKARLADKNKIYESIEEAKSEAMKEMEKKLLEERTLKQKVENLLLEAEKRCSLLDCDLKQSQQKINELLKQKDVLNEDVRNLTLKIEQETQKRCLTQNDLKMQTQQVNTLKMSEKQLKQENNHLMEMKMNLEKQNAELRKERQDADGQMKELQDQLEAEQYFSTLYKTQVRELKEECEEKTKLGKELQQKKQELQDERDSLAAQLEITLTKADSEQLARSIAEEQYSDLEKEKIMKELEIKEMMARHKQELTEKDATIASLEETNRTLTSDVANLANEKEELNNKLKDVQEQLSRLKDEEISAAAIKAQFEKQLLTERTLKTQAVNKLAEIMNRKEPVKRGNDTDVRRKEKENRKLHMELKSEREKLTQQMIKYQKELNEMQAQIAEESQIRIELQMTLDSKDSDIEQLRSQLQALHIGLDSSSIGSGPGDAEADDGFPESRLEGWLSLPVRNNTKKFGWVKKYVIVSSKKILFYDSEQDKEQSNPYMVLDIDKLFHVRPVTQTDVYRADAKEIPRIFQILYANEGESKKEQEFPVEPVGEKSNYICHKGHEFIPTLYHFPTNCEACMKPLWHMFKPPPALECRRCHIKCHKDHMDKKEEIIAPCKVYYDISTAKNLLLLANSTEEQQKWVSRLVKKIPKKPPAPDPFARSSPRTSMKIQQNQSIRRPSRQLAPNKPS
Sequence of PDGFRβ(h) (P09619 33-1106): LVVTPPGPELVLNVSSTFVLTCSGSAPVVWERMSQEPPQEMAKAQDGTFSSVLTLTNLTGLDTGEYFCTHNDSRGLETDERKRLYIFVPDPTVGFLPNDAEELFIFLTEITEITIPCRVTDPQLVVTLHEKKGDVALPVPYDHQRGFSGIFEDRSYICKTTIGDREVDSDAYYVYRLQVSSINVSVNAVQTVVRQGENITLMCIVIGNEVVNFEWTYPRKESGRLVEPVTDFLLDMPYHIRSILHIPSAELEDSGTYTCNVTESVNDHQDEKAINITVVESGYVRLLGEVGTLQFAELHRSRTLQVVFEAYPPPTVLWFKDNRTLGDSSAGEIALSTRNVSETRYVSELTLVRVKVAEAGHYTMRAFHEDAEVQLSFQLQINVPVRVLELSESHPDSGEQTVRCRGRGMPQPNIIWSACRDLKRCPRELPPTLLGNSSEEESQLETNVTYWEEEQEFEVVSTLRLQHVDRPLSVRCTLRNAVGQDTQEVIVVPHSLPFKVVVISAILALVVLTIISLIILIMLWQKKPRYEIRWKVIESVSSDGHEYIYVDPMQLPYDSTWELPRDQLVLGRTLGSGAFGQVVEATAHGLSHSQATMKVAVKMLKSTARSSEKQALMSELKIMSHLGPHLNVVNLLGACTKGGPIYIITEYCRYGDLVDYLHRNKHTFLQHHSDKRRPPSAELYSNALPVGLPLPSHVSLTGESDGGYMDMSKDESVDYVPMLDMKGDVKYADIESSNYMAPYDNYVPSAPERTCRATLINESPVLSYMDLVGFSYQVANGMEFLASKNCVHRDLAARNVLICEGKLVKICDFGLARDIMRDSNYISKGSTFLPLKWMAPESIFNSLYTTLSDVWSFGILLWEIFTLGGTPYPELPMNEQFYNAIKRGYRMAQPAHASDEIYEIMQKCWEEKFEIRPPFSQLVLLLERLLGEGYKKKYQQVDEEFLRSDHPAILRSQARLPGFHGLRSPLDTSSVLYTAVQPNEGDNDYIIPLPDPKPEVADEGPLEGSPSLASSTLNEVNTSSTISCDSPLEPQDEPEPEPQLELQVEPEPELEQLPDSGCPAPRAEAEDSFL
Sequence of CHK1(h) (O14757 whole entry): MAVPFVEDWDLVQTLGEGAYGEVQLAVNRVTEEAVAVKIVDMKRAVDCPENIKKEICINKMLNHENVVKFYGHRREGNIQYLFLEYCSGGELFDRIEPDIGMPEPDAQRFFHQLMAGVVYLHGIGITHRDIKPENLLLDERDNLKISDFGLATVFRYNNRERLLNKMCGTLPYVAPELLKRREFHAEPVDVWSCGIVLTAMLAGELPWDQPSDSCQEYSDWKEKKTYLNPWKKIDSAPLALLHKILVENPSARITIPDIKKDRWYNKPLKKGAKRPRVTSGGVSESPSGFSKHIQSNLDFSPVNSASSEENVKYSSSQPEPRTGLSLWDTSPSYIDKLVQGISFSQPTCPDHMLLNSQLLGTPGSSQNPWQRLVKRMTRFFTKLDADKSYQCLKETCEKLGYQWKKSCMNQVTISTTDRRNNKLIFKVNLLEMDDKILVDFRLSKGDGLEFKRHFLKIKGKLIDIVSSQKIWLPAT
Sequence of PKCη(h) (P24723 whole entry): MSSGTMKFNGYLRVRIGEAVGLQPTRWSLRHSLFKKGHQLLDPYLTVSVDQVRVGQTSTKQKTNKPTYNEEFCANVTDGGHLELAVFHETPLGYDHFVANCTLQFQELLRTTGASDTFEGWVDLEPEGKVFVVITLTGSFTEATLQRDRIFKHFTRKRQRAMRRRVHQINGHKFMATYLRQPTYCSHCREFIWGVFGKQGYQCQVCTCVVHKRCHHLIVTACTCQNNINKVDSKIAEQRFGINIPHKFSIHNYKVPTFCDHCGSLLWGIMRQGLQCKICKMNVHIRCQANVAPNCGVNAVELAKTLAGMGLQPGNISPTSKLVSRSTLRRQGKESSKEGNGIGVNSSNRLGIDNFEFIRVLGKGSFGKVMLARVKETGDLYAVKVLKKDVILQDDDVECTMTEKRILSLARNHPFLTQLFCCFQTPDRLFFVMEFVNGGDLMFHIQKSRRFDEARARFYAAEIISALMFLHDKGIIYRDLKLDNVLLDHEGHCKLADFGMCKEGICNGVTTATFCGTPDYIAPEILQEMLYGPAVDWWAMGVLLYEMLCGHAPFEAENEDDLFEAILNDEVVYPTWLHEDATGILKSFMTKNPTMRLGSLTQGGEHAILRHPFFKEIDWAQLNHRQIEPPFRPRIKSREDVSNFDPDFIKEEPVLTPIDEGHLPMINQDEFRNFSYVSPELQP

SMILES | inhibition at 0.1 µM (AMPKα1(h)) [%] | inhibition at 0.1 µM (Aurora-C(h)) [%] | inhibition at 0.1 µM (Blk(m)) [%] | inhibition at 0.1 µM (CHK1(h)) [%] | inhibition at 0.1 µM (DMPK(h)) [%] | inhibition at 0.1 µM (EphA7(h)) [%] | inhibition at 0.1 µM (FGFR2(N549H)(h)) [%] | inhibition at 0.1 µM (GRK5(h)) [%] | inhibition at 0.1 µM (GRK7(h)) [%] | inhibition at 0.1 µM (HIPK1(h)) [%] | inhibition at 0.1 µM (HIPK3(h)) [%] | inhibition at 0.1 µM (IGF-1R(h), activated) [%] | inhibition at 0.1 µM (IRAK4(h)) [%] | inhibition at 0.1 µM (JAK3(h)) [%] | inhibition at 0.1 µM (Lyn(h)) [%] | inhibition at 0.1 µM (MAPK1(h)) [%] | inhibition at 0.1 µM (MSSK1(h)) [%] | inhibition at 0.1 µM (MuSK(h)) [%] | inhibition at 0.1 µM (PDGFRβ(h)) [%] | inhibition at 0.1 µM (PEK(h)) [%] | also measured
Cc1cc2c(F)c(Oc3nc(Nc4cc(C5CC5)[nH]n4)cc(N4CCN(C)CC4)n3)ccc2[nH]1 [Compound 10] | 71 | 54 | 84 | 16 | -4 | 23 | 100 | 18 | -4 | -6 | -1 | 59 | 37 | 86 | 100 | -4 | 22 | 30 | 28 | -4 | inhibition at 0.1 µM [1]: -1%; inhibition at 0.1 µM [2]: 0%; inhibition at 0.1 µM (PKCη(h)): -16%; inhibition at 0.1 µM (Pim-1(h)): -21%; inhibition at 0.1 µM (Pim-3(h)): -1%; inhibition at 0.1 µM (Plk3(h)): 1%; inhibition at 0.1 µM (RIPK2(h)): 1%; inhibition at 0.1 µM (ROCK-II(h)): 11%; inhibition at 0.1 µM (Ros(h)): 12%; inhibition at 0.1 µM (TBK1(h)): 71%; inhibition at 0.1 µM (ZIPK(h)): 1%; inhibition at 0.1 µM (c-RAF(h)): 6%
Cc1cc2c(F)c(Oc3nc(Nc4cc(C5CC5)[nH]n4)cc(N4CCNCC4)n3)ccc2[nH]1 [Compound 11, N-(5-cyclopropyl-1H-pyrazol-3-yl)-2-((4-fluoro-2-methyl-1H-indol-5-yl)oxy)-6-(piperazin-1-yl)pyrimidin-4-amine] | 72 | 67 | 93 | 0 | -16 | 34 | 100 | -2 | 0 | -12 | -3 | 65 | 13 | 86 | 99 | -10 | 0 | 20 | 24 | -8 | inhibition at 0.1 µM [1]: 5%; inhibition at 0.1 µM [2]: 1%; inhibition at 0.1 µM (PKCη(h)): -7%; inhibition at 0.1 µM (Pim-1(h)): -9%; inhibition at 0.1 µM (Pim-3(h)): -4%; inhibition at 0.1 µM (Plk3(h)): 1%; inhibition at 0.1 µM (RIPK2(h)): 13%; inhibition at 0.1 µM (ROCK-II(h)): 3%; inhibition at 0.1 µM (Ros(h)): 71%; inhibition at 0.1 µM (TBK1(h)): 95%; inhibition at 0.1 µM (ZIPK(h)): 7%; inhibition at 0.1 µM (c-RAF(h)): 1%
